Assay results as given in ChEMBL document CHEMBL4196048, “Discovery and characterization of a potent Wnt and hedgehog signaling pathways dual inhibitor” (Eur J Med Chem, 2018).
Blank lines part the entries; values can stand above or below the compound they belong to. Activity calls are given as the source filed them. The calls are words filed in the database; no cut-off is given here.

Legend:
Protein smoothened [1] = target: Protein smoothened (Mus musculus, UniProt P56726); test: (§1) Inhibition of smo-mediated hedgehog signaling pathway in mouse NIH3T3 cells expressing GRE-Luc reporter gene assessed as inhibition of SAG-induced GRE-Luc reporter activity after 48 hrs by luminescence assay; type: functional, cell-based
[2] = target: T1, Protein-serine O-palmitoleoyltransferase porcupine (Mus musculus, UniProt Q9JJJ7); test: (§2) Inhibition of porcupine in mouse L Wnt3A cells co-cultured with HEK293 cells assessed as suppression of Wnt signaling after 48 hrs by Super-top flash reporter gene assay; type: cell-based
T1 sequence (Q9JJJ7 whole entry): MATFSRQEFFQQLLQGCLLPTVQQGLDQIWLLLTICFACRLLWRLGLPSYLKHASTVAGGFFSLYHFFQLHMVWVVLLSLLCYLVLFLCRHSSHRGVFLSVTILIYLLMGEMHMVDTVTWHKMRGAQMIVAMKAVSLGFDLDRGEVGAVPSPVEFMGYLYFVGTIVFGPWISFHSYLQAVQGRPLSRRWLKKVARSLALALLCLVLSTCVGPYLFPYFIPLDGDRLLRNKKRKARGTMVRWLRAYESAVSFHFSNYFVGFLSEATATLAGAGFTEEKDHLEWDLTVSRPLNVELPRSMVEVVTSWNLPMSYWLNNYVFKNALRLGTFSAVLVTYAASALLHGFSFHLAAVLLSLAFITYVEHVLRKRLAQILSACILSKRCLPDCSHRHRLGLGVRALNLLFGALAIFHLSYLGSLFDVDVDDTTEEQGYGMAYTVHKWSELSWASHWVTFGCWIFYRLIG

[3] = Half life in ICR mouse at 2 mg/kg, iv by LC-MS/MS analysis; type: ADME, organism-based; conditions: in vivo
[4] = Clearance in ICR mouse at 2 mg/kg, iv by LC-MS/MS analysis; type: ADME, organism-based; conditions: in vivo
Mus musculus [5] = test: Toxicity in C57BL/6J mouse assessed as effect on spleen weight at 10 mg/kg administered for 7 days via oral gavage; type: organism-based; conditions: in vivo, 168 h
Mus musculus [6] = test: Toxicity in C57BL/6J mouse assessed as effect on colon architecture at 10 mg/kg administered via oral gavage for 7 days by hematoxylin and eosin staining-based method; type: organism-based; conditions: in vivo, 168 h
[7] = AUC (0 to 24 hrs) in ICR mouse at 10 mg/kg, po administered via gavage by LC-MS/MS analysis; type: ADME, organism-based; parameters: time < 24 hr, dose 10 mg/kg, route oral; conditions: in vivo
Mus musculus [8] = test: Toxicity in C57BL/6J mouse assessed as effect on stomach architecture at 10 mg/kg administered via oral gavage for 7 days by hematoxylin and eosin staining-based method; type: organism-based; conditions: in vivo, 168 h
Mus musculus [9] = test: Toxicity in C57BL/6J mouse assessed as effect on heart weight at 10 mg/kg administered for 7 days via oral gavage; type: organism-based; conditions: in vivo, 168 h
[10] = target: T2, Protein-serine O-palmitoleoyltransferase porcupine (Homo sapiens) (UniProt Q9H237); test: Inhibition of porcupine-mediated Wnt/beta-catenin signaling in human PA1 cells assessed as downregulation of Axin2 mRNA expression after 24 hrs by real-time PCR analysis; type: cell-based
T2 sequence (whole entry): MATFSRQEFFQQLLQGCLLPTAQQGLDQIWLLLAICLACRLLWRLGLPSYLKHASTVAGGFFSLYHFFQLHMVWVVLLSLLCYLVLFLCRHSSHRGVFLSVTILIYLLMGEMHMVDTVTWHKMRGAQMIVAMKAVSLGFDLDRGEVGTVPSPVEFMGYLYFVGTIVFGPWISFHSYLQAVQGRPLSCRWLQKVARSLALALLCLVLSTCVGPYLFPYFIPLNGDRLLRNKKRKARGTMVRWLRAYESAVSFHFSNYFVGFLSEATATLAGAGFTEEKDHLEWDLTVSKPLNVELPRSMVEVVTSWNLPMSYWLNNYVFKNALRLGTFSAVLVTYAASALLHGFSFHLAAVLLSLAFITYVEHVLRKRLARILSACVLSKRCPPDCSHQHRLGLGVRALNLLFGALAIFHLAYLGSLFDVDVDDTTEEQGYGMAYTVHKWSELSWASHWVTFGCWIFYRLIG

Mus musculus [11] = test: Toxicity in C57BL/6J mouse assessed as body weight loss at 10 mg/kg administered for 7 days via oral gavage; type: organism-based; conditions: in vivo, 168 h
[12] = target: T2, Protein-serine O-palmitoleoyltransferase porcupine (Homo sapiens); test: Inhibition of porcupine in HEK293 cells transfected with pLibin-WNT3A plasmid assessed as downregulation of disheveled 2 phosphorylation at 100 nM after 48 hrs by Western blot analysis; type: cell-based
[13] = Protein binding in mouse plasma; type: ADME, cell-free; conditions: read-out: PPB (converted)
Mus musculus [14] = test: Toxicity in C57BL/6J mouse assessed as effect on WBC count in blood at 10 mg/kg administered for 7 days via oral gavage; type: organism-based; conditions: in vivo, 168 h
[15] = target: T2, Protein-serine O-palmitoleoyltransferase porcupine (Homo sapiens); test: Inhibition of porcupine in HEK293T cells transfected with pLibin-WNT3A plasmid assessed as reduction in Wnt3A secretion into cell culture medium at 100 nM after 48 hrs by Western blot method; type: cell-based
[16] = target: Protein smoothened (Mus musculus) (UniProt P56726); test: Inhibition of smo-mediated hedgehog signaling pathway in mouse NIH3T3-Luc cells assessed as downregulation of Gli mRNA expression after 48 hrs by real-time PCR analysis; type: functional, cell-based
Mus musculus [17] = test: Toxicity in C57BL/6J mouse assessed as effect on liver weight at 10 mg/kg administered for 7 days via oral gavage; type: organism-based; conditions: in vivo, 168 h
Mus musculus [18] = test: Toxicity in C57BL/6J mouse assessed as effect on lung weight at 10 mg/kg administered for 7 days via oral gavage; type: organism-based; conditions: in vivo, 168 h
[19] = AUC (0 to 24 hrs) in ICR mouse at 2 mg/kg, iv by LC-MS/MS analysis; type: ADME, organism-based; parameters: dose 2 mg/kg, time < 24 hr, route intravenous; conditions: in vivo
Mus musculus [20] = test: Toxicity in C57BL/6J mouse assessed as effect on liver architecture at 10 mg/kg administered via oral gavage for 7 days by hematoxylin and eosin staining-based method; type: organism-based; conditions: in vivo, 168 h
[21] = target: T2, Protein-serine O-palmitoleoyltransferase porcupine (Homo sapiens); test: Inhibition of porcupine-mediated Wnt/beta-catenin signaling in human PA1 cells assessed as downregulation of disheveled 2 phosphorylation after 48 hrs by Western blot analysis; type: cell-based
HEK-293T = test: Effect on Wnt3A levels in HEK293T cells transfected with pLibin-WNT3A plasmid at 100 nM after 48 hrs by Western blot method; type: functional, cell-based; conditions: Homo sapiens
Mus musculus [22] = test: Toxicity in C57BL/6J mouse assessed as effect on lymphocyte count in blood at 10 mg/kg administered for 7 days via oral gavage; type: organism-based; conditions: in vivo, 168 h
[23] = Cmax in ICR mouse at 10 mg/kg, po administered via gavage by LC-MS/MS analysis; type: ADME, organism-based; parameters: dose 10 mg/kg, route oral; conditions: in vivo
Mus musculus [24] = test: Toxicity in C57BL/6J mouse assessed as effect on platelet count in blood at 10 mg/kg administered for 7 days via oral gavage; type: organism-based; conditions: in vivo, 168 h
GES1 = test: Cytotoxicity against human GES-1 cells up to 20 uM by Cell Titer-Glo assay; type: cell-based
[25] = Oral bioavailability in ICR mouse at 10 mg/kg administered via gavage by LC-MS/MS analysis; type: ADME, organism-based; conditions: in vivo
Mus musculus [26] = test: Time at which blood concentration stays above in vitro IC50 for porcupine-mediated Wnt signaling and smo-mediated hedgehog signaling pathway in ICR mouse at 10 mg/kg, po administered via gavage by LC-MS/MS analysis; type: ADME, organism-based; conditions: in vivo
Mus musculus [27] = test: Toxicity in C57BL/6J mouse assessed as effect on spleen architecture at 10 mg/kg administered via oral gavage for 7 days by hematoxylin and eosin staining-based method; type: organism-based; conditions: in vivo, 168 h
Mus musculus [28] = test: Toxicity in C57BL/6J mouse assessed as effect on behavior at 10 mg/kg administered for 7 days via oral gavage; type: organism-based; conditions: in vivo, 168 h
[29] = Tmax in ICR mouse at 10 mg/kg, po administered via gavage by LC-MS/MS analysis; type: ADME, organism-based; conditions: in vivo
[30] = target: T2, Protein-serine O-palmitoleoyltransferase porcupine (Homo sapiens); test: Inhibition of porcupine in HEK293 cells transfected with pLibin-WNT3A plasmid assessed as downregulation of LRP6 phosphorylation at 100 nM after 48 hrs by Western blot analysis; type: cell-based
[31] = target: Protein smoothened (Mus musculus) (UniProt P56726); test: as §1; type: functional, cell-based
[32] = Volume of distribution at steady state in ICR mouse at 2 mg/kg, iv by LC-MS/MS analysis; type: ADME, organism-based; conditions: in vivo, read-out: Vdss
Mus musculus [33] = test: Toxicity in C57BL/6J mouse assessed as effect on RBC count in blood at 10 mg/kg administered for 7 days via oral gavage; type: organism-based; conditions: in vivo, 168 h
Astrocyte = test: Cytotoxicity against primary astrocytes (unknown origin) up to 20 uM after 24 hrs by MTT assay; type: cell-based
[34] = target: Protein smoothened (Mus musculus) (UniProt P56726); test: Inhibition of smo-mediated hedgehog signaling pathway in mouse NIH3T3-Luc cells assessed as downregulation of 1 to 100 nM SAG-induced Gli luciferase activity after 48 hrs luminescence assay; type: functional, cell-based
Mus musculus [35] = test: Toxicity in C57BL/6J mouse assessed as effect on food consumption at 10 mg/kg administered for 7 days via oral gavage; type: organism-based; conditions: in vivo, 168 h
[36] = target: T2, Protein-serine O-palmitoleoyltransferase porcupine (Homo sapiens); test: Inhibition of porcupine-mediated Wnt/beta-catenin signaling in human PA1 cells assessed as downregulation of LRP6 phosphorylation after 48 hrs by Western blot analysis; type: cell-based
[37] = Half life in ICR mouse at 10 mg/kg, po administered via gavage by LC-MS/MS analysis; type: ADME, organism-based; conditions: in vivo
Mus musculus [38] = test: Toxicity in C57BL/6J mouse assessed as effect on kidney weight at 10 mg/kg administered for 7 days via oral gavage; type: organism-based; conditions: in vivo, 168 h
Mus musculus [39] = test: Toxicity in C57BL/6J mouse assessed as effect on hemoglobin content in blood at 10 mg/kg administered for 7 days via oral gavage; type: organism-based; conditions: in vivo, 168 h
Protein smoothened [40] = target: Protein smoothened (Homo sapiens, UniProt Q99835); test: Inhibition of Bodipy-cyclopamine binding to human Smo expressed in human U2OS cells after 2 hrs by high content fluorescence imaging analysis; type: cell-based
[41] = target: T3, Protein-serine O-palmitoleoyltransferase porcupine (Mus musculus) (UniProt Q9JJJ7); test: as §2; type: cell-based
T3 sequence (whole entry): T1 sequence (Q9JJJ7 whole entry)

[42] = target: Protein smoothened (Mus musculus) (UniProt P56726); test: Inhibition of smo-mediated hedgehog signaling pathway in mouse NIH3T3-Luc cells assessed as downregulation of Gli mRNA expression at 1 uM after 48 hrs by real-time PCR analysis; type: functional, cell-based

Protein smoothened (Mus musculus, UniProt P56726), sequence (P56726 whole entry): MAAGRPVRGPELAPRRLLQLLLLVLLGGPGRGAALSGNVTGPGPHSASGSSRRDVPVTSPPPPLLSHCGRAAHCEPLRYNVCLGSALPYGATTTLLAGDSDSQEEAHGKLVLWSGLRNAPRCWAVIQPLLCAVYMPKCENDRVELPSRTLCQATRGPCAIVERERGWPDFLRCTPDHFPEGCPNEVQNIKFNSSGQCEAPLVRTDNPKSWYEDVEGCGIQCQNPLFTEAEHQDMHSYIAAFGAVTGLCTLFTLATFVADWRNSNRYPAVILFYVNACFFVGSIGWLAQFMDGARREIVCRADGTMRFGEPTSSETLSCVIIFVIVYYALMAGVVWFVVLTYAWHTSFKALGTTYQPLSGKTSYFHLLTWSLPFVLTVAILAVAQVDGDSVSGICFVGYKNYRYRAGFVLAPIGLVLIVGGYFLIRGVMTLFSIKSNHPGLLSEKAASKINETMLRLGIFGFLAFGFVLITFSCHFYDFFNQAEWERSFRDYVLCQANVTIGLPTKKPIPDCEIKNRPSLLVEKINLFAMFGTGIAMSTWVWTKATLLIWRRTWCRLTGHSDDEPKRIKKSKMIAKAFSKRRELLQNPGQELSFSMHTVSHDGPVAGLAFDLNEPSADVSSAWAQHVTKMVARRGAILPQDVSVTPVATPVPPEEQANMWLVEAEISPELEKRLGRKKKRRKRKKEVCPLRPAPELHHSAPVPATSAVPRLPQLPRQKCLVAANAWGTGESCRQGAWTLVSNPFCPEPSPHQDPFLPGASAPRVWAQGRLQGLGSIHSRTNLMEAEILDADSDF
Protein smoothened (Mus musculus), sequence (P56726 whole entry): as above
Protein smoothened (Homo sapiens, UniProt Q99835), sequence (Q99835 whole entry): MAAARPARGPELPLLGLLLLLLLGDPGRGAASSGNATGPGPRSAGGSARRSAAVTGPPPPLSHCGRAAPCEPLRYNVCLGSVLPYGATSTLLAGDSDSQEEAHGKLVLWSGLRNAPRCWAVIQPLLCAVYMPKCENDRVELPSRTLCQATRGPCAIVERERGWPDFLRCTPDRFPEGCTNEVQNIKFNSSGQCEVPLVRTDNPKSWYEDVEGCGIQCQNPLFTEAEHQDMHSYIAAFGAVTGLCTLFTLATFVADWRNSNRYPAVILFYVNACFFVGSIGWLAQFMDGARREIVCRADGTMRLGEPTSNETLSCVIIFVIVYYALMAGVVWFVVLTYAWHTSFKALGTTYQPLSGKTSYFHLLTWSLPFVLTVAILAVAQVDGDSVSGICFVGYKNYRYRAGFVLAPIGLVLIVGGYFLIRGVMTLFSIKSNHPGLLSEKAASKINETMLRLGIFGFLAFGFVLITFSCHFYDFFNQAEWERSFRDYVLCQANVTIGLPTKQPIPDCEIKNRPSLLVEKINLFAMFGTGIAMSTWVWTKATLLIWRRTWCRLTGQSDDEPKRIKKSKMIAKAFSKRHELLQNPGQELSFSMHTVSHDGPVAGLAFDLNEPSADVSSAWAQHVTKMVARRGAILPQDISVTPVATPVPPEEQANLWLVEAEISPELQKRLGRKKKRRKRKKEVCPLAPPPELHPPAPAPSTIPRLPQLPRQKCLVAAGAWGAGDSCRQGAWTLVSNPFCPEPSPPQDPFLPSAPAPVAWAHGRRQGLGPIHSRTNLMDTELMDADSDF

SMILES: Cc1cc(-c2ncc(CNC(=O)c3ccc4c(c3)[nH]c3ccccc34)cc2C#N)ccn1
IC50 (Protein smoothened [1]): 1220 nM
IC50 [2]: 0.72 nM

SMILES: Cc1cc(-c2ncc(CNC(=O)c3ccc4c(c3)Cc3ccccc3-4)cc2F)ccn1
IC50 [2]: 6.5 nM

SMILES: CS(=O)(=O)c1ccc(C(=O)Nc2ccc(Cl)c(-c3ccccn3)c2)c(Cl)c1
inhibition [10]: inactive
inhibition [15]: inactive
inhibition [21]: inactive
inhibition [41]: inactive
inhibition [36]: inactive

SMILES: Cc1cc(-c2ncc(CC(=O)Nc3ccc(-c4cnccn4)cn3)cc2C)ccn1
inhibition [42]: inactive
inhibition [10]: Active
inhibition [12]: Active
inhibition [15]: Active
inhibition [21]: Active
Activity (HEK-293T): inactive
inhibition [30]: Active
inhibition [31]: inactive
inhibition [36]: Active

SMILES: Cc1cc(-c2ncc(CNC(=O)c3ccc4c(c3)oc3ccccc34)cc2F)ccn1
IC50 [2]: 2.1 nM

Second part, led by results:

IC50 (Protein smoothened [1]): 3660 nM
IC50 [2]: 1.9 nM
SMILES: COc1cc(CNC(=O)c2ccc3c(c2)[nH]c2ccccc23)cnc1-c1ccnc(C)c1

half-life [3]: 1.1 h
clearance [4]: 6.1 mL/min/kg
AUC(0-t) at 24 h [7]: 13500 ng·h/mL
inhibition [10]: Active
inhibition [12]: Active
fraction unbound [13]: 0.007
inhibition [15]: Active
inhibition [16]: Dose-dependent effect
AUC(0-t) at 24 h [19]: 5460 ng·h/mL
inhibition [21]: Active
Cmax [23]: 5140 ng/mL
bioavailability [25]: 49%
Time (Mus musculus [26]): 10 h
Tmax [29]: 0.5 h
inhibition [30]: Active
inhibition [31]: Dose-dependent effect
IC50 (Protein smoothened [1]): 71 nM
Vd [32]: 0.4 L/kg
inhibition [34]: Active
inhibition [36]: Active
half-life [37]: 2.1 h
IC50 (Protein smoothened [40]): > 10000 nM
SMILES: Cc1cc(-c2ncc(CNC(=O)c3ccc4c(c3)[nH]c3ccccc34)cc2F)ccn1
Activity (Mus musculus [5]): Non-Toxic
Activity (Mus musculus [6]): Non-Toxic
Activity (Mus musculus [8]): Non-Toxic
Activity (Mus musculus [9]): Non-Toxic
Activity (Mus musculus [11]): Non-Toxic
Activity (Mus musculus [14]): Non-Toxic
Activity (Mus musculus [17]): Non-Toxic
Activity (Mus musculus [18]): Non-Toxic
Activity (Mus musculus [20]): Non-Toxic
Activity (HEK-293T): inactive
Activity (Mus musculus [22]): Non-Toxic
Activity (Mus musculus [24]): Non-Toxic
Activity (GES1): Non-Toxic
Activity (Mus musculus [27]): Non-Toxic
Activity (Mus musculus [28]): Non-Toxic
Activity (Mus musculus [33]): Non-Toxic
Activity (Astrocyte): Non-Toxic
Activity (Mus musculus [35]): Non-Toxic
Activity (Mus musculus [38]): Non-Toxic
Activity (Mus musculus [39]): Non-Toxic
